This passage reports melting point results from patent US8193356B2, “Heterocycle compound, and production process and application thereof” (Aska Pharmaceutical Co., Ltd., priority 2005, dated 2012).

By melting point is commonly meant the temperature, or range, at which the solid turns liquid.

In turn, `O=c1c2c(Cc3ccccc3)n[nH]c2c2cccnc2n1-c1cccc(OC(F)(F)F)c1` (hydrate or solvate) [Example 1, 3-Benzyl-5-(3-trifluoromethoxyphenyl)-1H-pyrazolo[4,3-c][1,8]-naphthyridin-4(5H)-one] registered a melting point of 249 to 251 °C.
With `O=c1c2c(Cc3ccccc3)n[nH]c2c2cccnc2n1-c1cccc(C(F)(F)F)c1` (hydrate or solvate) [Example 2, 3-Benzyl-5-(3-trifluoromethylphenyl)-1H-pyrazolo[4,3-c][1,8]-naphthyridin-4(5H)-one] the figure was 226 to 228 °C.
As to `Cc1ccc2c3[nH]nc(Cc4ccccc4)c3c(=O)n(-c3ccccc3)c2n1` (hydrate or solvate) [Example 3, 3-Benzyl-7-methyl-5-phenyl-1H-pyrazolo[4,3-c][1,8]-naphthyridin-4(5H)-one], the melting point was in the range of 300 to 302 °C.
In the case of `O=c1c2c(Cc3ccccc3OC(F)(F)F)n[nH]c2c2cccnc2n1-c1ccccc1` (hydrate or solvate) [Example 4, 5-Phenyl-3-(2-trifluoromethoxybenzyl)-1H-pyrazolo[4,3-c][1,8]naphthyridin-4(5H)-one], the melting point was 275 °C (dec.).
`O=c1c2c(Cc3cccc(OC(F)(F)F)c3)n[nH]c2c2cccnc2n1-c1ccccc1` (hydrate or solvate) [Example 5, 5-Phenyl-3-(3-trifluoromethoxybenzyl)-1H-pyrazolo[4,3-c][1,8]naphthyridin-4(5H)-one] showed a melting point of 253 to 254 °C.
In turn, `O=c1c2c(Cc3ccc(OC(F)(F)F)cc3)n[nH]c2c2cccnc2n1-c1ccccc1` (hydrate or solvate) [Example 6, 5-Phenyl-3-(4-trifluoromethoxybenzyl)-1H-pyrazolo[4,3-c][1,8]naphthyridin-4(5H)-one] showed a melting point of 216 to 218 °C.
In turn, `COCc1n[nH]c2c1c(=O)n(-c1ccccc1)c1ncccc21` (hydrate or solvate) [Example 10, 3-(Methoxymethyl)-5-phenyl-1H-pyrazolo[4,3-c][1,8]naphthyridin-4(5H)-one] yielded a melting point of 263 to 265 °C.
For the compound `CC(c1ccccc1)c1n[nH]c2c1c(=O)n(-c1ccccc1)c1ncccc21` (stereo not drawn) (hydrate or solvate) [Example 11, 5-Phenyl-3-(1-phenylethyl)-1H-pyrazolo[4,3-c][1,8]naphthyridin-4(5H)-one], the melting point fell in the range of 267 to 268 °C.
In the case of `O=c1c2c(Cc3ccccc3)n[nH]c2c2ncccc2n1-c1ccccc1` (hydrate or solvate) [Example 30, 3-Benzyl-5-phenyl-1H-pyrazolo[4,3-c][1,5]naphthyridin-4(5H)-one], the melting point fell in the range of 269 to 272 °C.
Under `COc1ccccc1Cc1n[nH]c2c1c(=O)n(-c1cccc(OC(F)(F)F)c1)c1ncccc21` (hydrate or solvate) [Example 31, 3-(2-Methoxybenzyl)-5-(3-trifluoromethoxyphenyl)-1H-pyrazolo[4,3-c][1,8]-naphthyridin-4(5H)-one] stands 243 to 245 °C; under `O=c1c2c(Cc3ccc(F)cc3)n[nH]c2c2cccnc2n1-c1cccc(OC(F)(F)F)c1` (hydrate or solvate) [Example 32, 3-(4-Fluorobenzyl)-5-(3-trifluoromethoxyphenyl)-1H-pyrazolo[4,3-c][1,8]-naphthyridin-4(5H)-one], 226 to 228 °C; under `O=c1c2c(Cc3ccccc3Cl)n[nH]c2c2cccnc2n1-c1cccc(OC(F)(F)F)c1` (hydrate or solvate) [Example 33, 3-(2-Chlorobenzyl)-5-(3-trifluoromethoxyphenyl)-1H-pyrazolo[4,3-c][1,8]-naphthyridin-4(5H)-one], 273 to 275 °C.
With `Cc1ccccc1Cc1n[nH]c2c1c(=O)n(-c1cccc(OC(F)(F)F)c1)c1ncccc21` (hydrate or solvate) [Example 34, 3-(2-Methylbenzyl)-5-(3-trifluoromethoxyphenyl)-1H-pyrazolo[4,3-c][1,8]-naphthyridin-4(5H)-one] the figure was 240 to 242 °C.
Compound `O=c1c2c(Cc3ccccc3[N+](=O)[O-])n[nH]c2c2cccnc2n1-c1cccc(OC(F)(F)F)c1` (hydrate or solvate) [Example 35, 3-(2-Nitrobenzyl)-5-(3-trifluoromethoxyphenyl)-1H-pyrazolo[4,3-c][1,8]-naphthyridin-4(5H)-one] came in with a melting point of 274 to 276 °C.
Compound `COc1ccccc1Cc1n[nH]c2c1c(=O)n(-c1cccc(C(F)(F)F)c1)c1ncccc21` (hydrate or solvate) [Example 37, 3-(2-Methoxybenzyl)-5-(3-trifluoromethylphenyl)-1H-pyrazolo[4,3-c][1,8]-naphthyridin-4(5H)-one] returned a melting point of 229 to 231 °C.
Under `O=c1c2c(Cc3ccc(F)cc3)n[nH]c2c2cccnc2n1-c1cccc(C(F)(F)F)c1` (hydrate or solvate) [Example 38, 3-(4-Fluorobenzyl)-5-(3-trifluoromethylphenyl)-1H-pyrazolo[4,3-c][1,8]-naphthyridin-4(5H)-one] stands 243 to 245 °C; under `O=c1c2c(Cc3ccccc3Cl)n[nH]c2c2cccnc2n1-c1cccc(C(F)(F)F)c1` (hydrate or solvate) [Example 39, 3-(2-Chlorobenzyl)-5-(3-trifluoromethylphenyl)-1H-pyrazolo[4,3-c][1,8]-naphthyridin-4(5H)-one], 276 to 278 °C.
Consider `Cc1ccccc1Cc1n[nH]c2c1c(=O)n(-c1cccc(C(F)(F)F)c1)c1ncccc21` (hydrate or solvate) [Example 40, 3-(2-Methylbenzyl)-5-(3-trifluoromethylphenyl)-1H-pyrazolo[4,3-c][1,8]-naphthyridin-4(5H)-one], for which the melting point was in the range of 249 to 252 °C.
For the compound `O=c1c2c(Cc3ccccc3[N+](=O)[O-])n[nH]c2c2cccnc2n1-c1cccc(C(F)(F)F)c1` (hydrate or solvate) [Example 41, 3-(2-Nitrobenzyl)-5-(3-trifluoromethylphenyl)-1H-pyrazolo[4,3-c][1,8]-naphthyridin-4(5H)-one], the melting point lay in the range of 282 to 284 °C.
Turning to `O=c1c2c(CC3CCOCC3)n[nH]c2c2cccnc2n1-c1ccccc1` (hydrate or solvate) [Example 44, 5-Phenyl-3-(tetrahydro-2H-pyran-4-ylmethyl)-1H-pyrazolo[4,3-c][1,8]naphthyridin-4(5H)-one], the melting point lay within 228 to 234 °C.
Turning to `O=c1c2c(Cc3ccc(C(F)(F)F)cc3)n[nH]c2c2cccnc2n1-c1ccccc1` [Example 7, 5-Phenyl-3-(4-trifluoromethylbenzyl)-1H-pyrazolo[4,3-c][1,8]naphthyridin-4(5H)-one], the melting point is 216 to 219 °C.
`O=c1c2c(Cc3cccc(C(F)(F)F)c3)n[nH]c2c2cccnc2n1-c1ccccc1` [Example 9, 5-Phenyl-3-(3-trifluoromethylbenzyl)-1H-pyrazolo[4,3-c][1,8]naphthyridin-4(5H)-one] gave a melting point of 303 to 305 °C.
Under `O=c1c2c(CCCCCCc3ccccc3)n[nH]c2c2cccnc2n1-c1ccccc1` [Example 12, 5-Phenyl-3-(6-phenylhexyl)-1H-pyrazolo[4,3-c][1,8]naphthyridin-4(5H)-one] stands 150 to 151 °C; under `O=c1c2c(CC3CCCCC3)n[nH]c2c2cccnc2n1-c1ccccc1` [Example 13, 3-Cyclohexylmethyl-5-phenyl-1H-pyrazolo[4,3-c][1,8]naphthyridin-4(5H)-one], 280 to 281 °C.
